Measured values: US9242945B2, “Substituted 2-benzylidene-2H-benzo[b][1,4]thiazin-3(4H)-ones, derivatives thereof, and therapeutic uses thereof” (TEMPLE UNIVERSITY—OF THE COMMONWEALTH SYSTEM OF HIGHER …, priority 2011, dated 2016)
Read-outs that look alike come from different tables or passages of the source.

Key:
[1] = test system: K562 (chronic myelogenous leukemia; leukemia cell line +ve for Bcr-Abl); test: Cytotoxicity assay, K562 tumor cells; format: cell-based; settings: Homo sapiens, K562, 96 h treatment
Experimental: (§1) The effect of the compounds of the invention on tumor cells was determined by the assay described by Latham et al., Oncogene 12:827-837 (1996). Tumor cells K562 (chronic myelogenous leukemia; leukemia cell line +ve for Bcr-Abl) or DU145 (prostate cancer) were plated in 12-well dishes at a cell density of 2.5×10^4 cells well. The plated cells were treated 24 hours later with a compound of the invention dissolved in DMSO at multiple concentrations ranging from 0.01 μM to 100 μM. The plates were examined 96 hours later under an inverted microscope, Olympus CK-2 using a 10× objective, and compound activity was noted by physical observation. When necessary, the total number of viable cells was determined by trypsinizing the wells and counting the number of viable cells, as determined by trypan blue exclusion, using a hemacytometer. Where “Lower” and “Upper” value are provided in Table 5, the IC50 was determined to be within that range. When only a “Lower” value is provided and no “Upper” value is listed, the IC50 was that value, or less than or greater than that value, as set forth in the Table.
(§2) The cytotoxicity of Compound 42, (Z)-6-((2,6-dichlorobenzyl)sulfonyl)-2-(4-hydroxy-3-nitrobenzylidene)-2H-benzo[b][1,4]thiazin-3(4H)-one, was determined according the assay method of Example 7 on the prostate (androgen dependent or independent), breast and pancreatic cancer cell lines listed in Table 6A, below, and the additional cell lines listed in Table 6B, below. The human mesenchymal stem cell line HMSC.hTERT and normal human fibroblast cell line HFL was included in the test.

DU145 (prostate cancer) = test: Cytotoxicity assay, DU145 tumor cells; format: cell-based; settings: Homo sapiens, DU-145, 96 h treatment
Experimental: as §1, §2

[2] = lower limit of the IC50 range, or the IC50 itself (or its bound) where no Upper value is listed, read-out: K562 IC50 (μm) Lower (μm)
[3] = upper limit of the IC50 range, read-out: K562 IC50 (μm) Upper (μm)
[4] = lower limit of the IC50 range, or the IC50 itself (or its bound) where no Upper value is listed, read-out: DU145 IC50 (μm) Lower (μm)
[5] = upper limit of the IC50 range, read-out: DU145 IC50 (μm) Upper (μm)

Structure (SMILES) | IC50 [1, 2] [µM] | IC50 [1, 3] [µM] | IC50 (DU145 (prostate cancer); [4]) [µM] | IC50 (DU145 (prostate cancer); [5]) [µM]
CN1CCN(c2ccc(/C=C3\Sc4ccc(S(=O)(=O)Cc5c(Cl)cccc5Cl)cc4NC3=O)cc2)CC1 [Compound 13, (Z)-6-((2,6-dichlorobenzyl)sulfonyl)-2-(4-(4-methylpiperazin-1-yl)benzylidene)-2H-benzo[b][1,4]thiazin-3(4H)-one] | ≥ 0.5 | ≤ 1 | ≥ 1 | ≤ 10
O=C1Nc2cc(S(=O)(=O)Cc3c(Cl)cccc3Cl)ccc2S/C1=C\c1ccc([N+](=O)[O-])cc1 [Compound 14, (Z)-6-((2,6-dichlorobenzyl)sulfonyl)-2-(4-nitrobenzylidene)-2H-benzo[b][1,4]thiazin-3(4H)-one] | ≥ 1 | ≤ 10 | ≥ 1 | ≤ 10
Nc1ccc(/C=C2\Sc3ccc(S(=O)(=O)Cc4c(Cl)cccc4Cl)cc3NC2=O)cc1 [Compound 15, (Z)-2-(4-aminobenzylidene)-6-((2,6-dichlorobenzyl)sulfonyl)-2H-benzo[b][1,4]thiazin-3(4H)-one] | 0.03 |  | 0.04 | 
O=C1Nc2cc(S(=O)(=O)Cc3c(Cl)cccc3Cl)ccc2S/C1=C\c1ccc(F)cc1 [Compound 16, (Z)-6-((2,6-dichlorobenzyl)sulfonyl)-2-(4-fluorobenzylidene)-2H-benzo[b][1,4]thiazin-3(4H)-one] | ≥ 1 | ≤ 10 | ≥ 1 | ≤ 10
O=C1Nc2cc(S(=O)(=O)Cc3c(Cl)cccc3Cl)ccc2S/C1=C\c1ccc(Cl)cc1 [Compound 17, (Z)-2-(4-chlorobenzylidene)-6-((2,6-dichlorobenzyl)sulfonyl)-2H-benzo[b][1,4]thiazin-3(4H)-one] | ≥ 1 | ≤ 10 | ≥ 1 | ≤ 10
O=C1Nc2cc(S(=O)(=O)Cc3c(Cl)cccc3Cl)ccc2S/C1=C\c1ccc(Br)cc1 [Compound 18, (Z)-2-(4-bromobenzylidene)-6-((2,6-dichlorobenzyl)sulfonyl)-2H-benzo[b][1,4]thiazin-3(4H)-one] | ≥ 1 | ≤ 10 | ≥ 1 | ≤ 10
O=C1Nc2cc(S(=O)(=O)Cc3c(Cl)cccc3Cl)ccc2S/C1=C\c1ccc(Cl)cc1Cl [Compound 22, (Z)-6-((2,6-dichlorobenzyl)sulfonyl)-2-(2,4-dichlorobenzylidene)-2H-benzo[b][1,4]thiazin-3(4H)-one] | ≥ 1 | ≤ 10 | ≥ 1 | ≤ 10
CC(=O)n1cc(/C=C2\Sc3ccc(S(=O)(=O)Cc4c(Cl)cccc4Cl)cc3NC2=O)c2ccccc21 [Compound 26, (Z)-2-((1-acetyl-1H-indol-3-yl)methylene)-6-((2,6-dichlorobenzyl)sulfonyl)-2H-benzo[b][1,4]thiazin-3(4H)-one] | ≥ 0.5 | ≤ 1 | ≥ 0.5 | ≤ 1
O=C1Nc2cc(S(=O)(=O)Cc3c(Cl)cccc3Cl)ccc2S/C1=C\c1ccc(Cl)c([N+](=O)[O-])c1 [Compound 29, (Z)-2-(4-chloro-3-nitrobenzylidene)-6-((2,6-dichlorobenzyl)sulfonyl)-2H-benzo[b][1,4]thiazin-3(4H)-one] | ≥ 1 | ≤ 10 | ≥ 0.5 | ≤ 1
O=C1Nc2cc(S(=O)(=O)Cc3c(Cl)cccc3Cl)ccc2S/C1=C\c1ccc(F)cc1F [Compound 30, (Z)-6-((2,6-dichlorobenzyl)sulfonyl)-2-(2,4-difluorobenzylidene)-2H-benzo[b][1,4]thiazin-3(4H)-one] | ≥ 1 | ≤ 10 | ≥ 1 | ≤ 10
O=C1Nc2cc(S(=O)(=O)Cc3c(Cl)cccc3Cl)ccc2S/C1=C\c1c(F)cc(F)cc1F [Compound 31, (Z)-6-((2,6-dichlorobenzyl)sulfonyl)-2-(2,4,6-trifluorobenzylidene)-2H-benzo[b][1,4]thiazin-3(4H)-one] | ≥ 1 | ≤ 10 | ≥ 1 | ≤ 10
COC(=O)c1ccc(/C=C2\Sc3ccc(S(=O)(=O)Cc4c(Cl)cccc4Cl)cc3NC2=O)cc1 [Compound 32, (Z)-methyl 4-((6-((2,6-dichlorobenzyl)sulfonyl)-3-oxo-3,4-dihydro-2H-benzo[b][1,4]thiazin-2-ylidene)methyl)benzoate] | ≥ 1 | ≤ 10 | ≥ 0.5 | ≤ 1
